One assay concerns the target CDK2 (cyclin A) (Homo sapiens (Human), UniProt P24941). Description: Z'-LYTE kinase assay. It counts as biochemical. As for the experimental part: IC50 values of compounds against CDK2 (cyclin A) were determined by Z'-LYTETM. […] The following equations were used for Z'-LYTETM Screening Assay Data Analysis.
Another assay has as its target CDK1 (cyclin B) (Homo sapiens (Human), UniProt P06493). As to the kind of experiment: Z'-LYTE kinase assay. Format: biochemical. From the text: The following equations were used for Z′-LYTE™ Screening Assay Data Analysis.
The next assay concerns the target CDK4 (Homo sapiens (Human), UniProt P11802). Description: In vitro kinase inhibition, luminescence (ADP-Glo) with retinoblastoma substrate. It counts as biochemical.
The next assay deals with CDK6 (Homo sapiens (Human), UniProt Q00534). As to the kind of experiment: biochemical. It counts as biochemical.
Another assay has as its target PI3Kδ kinase (Homo sapiens (Human), UniProt O00329). As to the kind of experiment: PI3Kδ kinase ADP-Glo assay (Reaction Biology Corporation). Particulars: read-out: PI3Kδ IC50.
Another assay deals with FMS kinase (Homo sapiens (Human), UniProt P07333). Description: LanthaScreen kinase assay (ATP, fluorescent-PolyGT substrate, TR-FRET). Format: biochemical.
Chain of FMS kinase (P07333 20-972): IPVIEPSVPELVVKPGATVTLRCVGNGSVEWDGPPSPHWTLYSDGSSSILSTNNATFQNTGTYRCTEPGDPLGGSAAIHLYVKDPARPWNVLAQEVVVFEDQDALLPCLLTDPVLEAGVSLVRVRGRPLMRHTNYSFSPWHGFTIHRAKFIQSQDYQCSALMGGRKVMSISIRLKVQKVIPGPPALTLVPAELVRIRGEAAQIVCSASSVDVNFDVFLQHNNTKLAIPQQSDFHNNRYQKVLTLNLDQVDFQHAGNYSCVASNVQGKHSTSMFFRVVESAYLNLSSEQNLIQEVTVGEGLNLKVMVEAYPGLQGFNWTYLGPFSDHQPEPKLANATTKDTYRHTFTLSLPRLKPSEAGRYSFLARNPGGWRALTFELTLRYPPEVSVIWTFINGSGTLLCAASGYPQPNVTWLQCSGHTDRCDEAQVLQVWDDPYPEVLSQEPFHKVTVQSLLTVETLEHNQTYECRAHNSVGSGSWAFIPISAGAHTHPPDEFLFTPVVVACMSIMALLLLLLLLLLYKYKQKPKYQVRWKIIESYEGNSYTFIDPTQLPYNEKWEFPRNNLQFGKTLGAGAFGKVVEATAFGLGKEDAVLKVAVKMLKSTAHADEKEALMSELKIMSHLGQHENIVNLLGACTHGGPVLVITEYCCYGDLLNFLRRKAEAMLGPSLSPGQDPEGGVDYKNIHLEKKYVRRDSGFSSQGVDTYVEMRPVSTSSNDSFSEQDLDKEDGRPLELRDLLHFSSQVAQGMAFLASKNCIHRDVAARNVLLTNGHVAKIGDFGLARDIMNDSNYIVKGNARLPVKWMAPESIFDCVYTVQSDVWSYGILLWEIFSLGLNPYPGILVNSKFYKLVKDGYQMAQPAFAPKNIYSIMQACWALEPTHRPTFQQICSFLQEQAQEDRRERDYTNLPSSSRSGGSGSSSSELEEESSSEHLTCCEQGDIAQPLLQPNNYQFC
For another assay, the system named is MCF-7. Description: Cancer cell proliferation assay, single agent. Format: cell-based. Particulars: Homo sapiens.
The next assay concerns DU4475. As to the kind of experiment: Cancer cell proliferation assay, single agent. Format: cell-based. The conditions noted are these: Homo sapiens.
[1] abbreviates: MCF7, read-out: IC50 (nM) MCF-7.
Setting [2] is: DU-4475, read-out: IC50 (nM) DU4475.
Setting [3] is: MCF7, MCF-7 cells, treated for 24-168 hours, read-out: IC50 (nM) MCF-7.
The mark [4] stands for this setting: DU-4475, DU4475 cells, treated for 24-168 hours, read-out: IC50 (nM) DU4475.

Where two headings read alike, the source gives them in different places.

Chain of CDK4 (P11802 whole entry): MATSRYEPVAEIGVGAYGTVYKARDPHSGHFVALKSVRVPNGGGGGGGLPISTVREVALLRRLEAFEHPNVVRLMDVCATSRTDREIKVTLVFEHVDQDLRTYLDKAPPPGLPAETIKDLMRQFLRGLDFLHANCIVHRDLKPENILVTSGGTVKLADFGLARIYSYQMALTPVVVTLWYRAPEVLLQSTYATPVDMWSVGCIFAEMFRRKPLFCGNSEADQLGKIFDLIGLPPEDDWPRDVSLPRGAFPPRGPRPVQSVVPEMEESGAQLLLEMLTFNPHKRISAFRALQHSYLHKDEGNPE
Chain of CDK4 (P24385 whole entry partner): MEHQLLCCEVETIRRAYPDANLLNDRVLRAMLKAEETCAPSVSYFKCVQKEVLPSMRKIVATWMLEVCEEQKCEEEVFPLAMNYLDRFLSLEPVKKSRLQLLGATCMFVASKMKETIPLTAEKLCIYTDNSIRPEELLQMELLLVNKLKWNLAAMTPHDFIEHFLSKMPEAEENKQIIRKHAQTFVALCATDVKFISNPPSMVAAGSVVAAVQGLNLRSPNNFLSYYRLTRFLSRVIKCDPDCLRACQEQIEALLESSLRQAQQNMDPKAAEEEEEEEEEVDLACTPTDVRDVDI
Chain of PI3Kδ kinase (O00329 whole entry): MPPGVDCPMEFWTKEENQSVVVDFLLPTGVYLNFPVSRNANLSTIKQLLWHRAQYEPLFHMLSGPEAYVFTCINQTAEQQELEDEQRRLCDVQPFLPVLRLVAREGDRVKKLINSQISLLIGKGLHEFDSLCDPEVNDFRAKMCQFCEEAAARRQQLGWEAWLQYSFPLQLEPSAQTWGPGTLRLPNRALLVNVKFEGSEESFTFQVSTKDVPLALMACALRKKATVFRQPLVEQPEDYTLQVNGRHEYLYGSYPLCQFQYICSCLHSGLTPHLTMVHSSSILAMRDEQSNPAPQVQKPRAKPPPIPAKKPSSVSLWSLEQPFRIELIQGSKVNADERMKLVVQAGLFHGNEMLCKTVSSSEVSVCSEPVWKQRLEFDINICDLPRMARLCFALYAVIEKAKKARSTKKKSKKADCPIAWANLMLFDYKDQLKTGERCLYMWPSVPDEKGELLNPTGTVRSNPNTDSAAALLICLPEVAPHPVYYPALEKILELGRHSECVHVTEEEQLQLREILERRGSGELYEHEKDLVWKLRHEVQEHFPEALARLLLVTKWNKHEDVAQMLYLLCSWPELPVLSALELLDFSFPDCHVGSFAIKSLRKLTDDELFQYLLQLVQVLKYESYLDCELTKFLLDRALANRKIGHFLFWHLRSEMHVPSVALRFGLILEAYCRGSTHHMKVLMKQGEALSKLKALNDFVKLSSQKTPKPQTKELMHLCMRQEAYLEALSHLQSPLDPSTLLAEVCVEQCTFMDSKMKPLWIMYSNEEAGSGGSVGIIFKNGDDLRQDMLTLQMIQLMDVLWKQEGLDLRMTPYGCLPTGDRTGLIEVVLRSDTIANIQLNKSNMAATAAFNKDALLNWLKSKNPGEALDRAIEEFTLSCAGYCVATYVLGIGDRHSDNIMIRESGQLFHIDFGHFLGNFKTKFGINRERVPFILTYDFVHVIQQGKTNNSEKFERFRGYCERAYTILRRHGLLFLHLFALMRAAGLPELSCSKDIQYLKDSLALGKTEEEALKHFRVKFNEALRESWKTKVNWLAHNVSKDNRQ
Chain of PI3Kδ kinase (P27986 whole entry partner): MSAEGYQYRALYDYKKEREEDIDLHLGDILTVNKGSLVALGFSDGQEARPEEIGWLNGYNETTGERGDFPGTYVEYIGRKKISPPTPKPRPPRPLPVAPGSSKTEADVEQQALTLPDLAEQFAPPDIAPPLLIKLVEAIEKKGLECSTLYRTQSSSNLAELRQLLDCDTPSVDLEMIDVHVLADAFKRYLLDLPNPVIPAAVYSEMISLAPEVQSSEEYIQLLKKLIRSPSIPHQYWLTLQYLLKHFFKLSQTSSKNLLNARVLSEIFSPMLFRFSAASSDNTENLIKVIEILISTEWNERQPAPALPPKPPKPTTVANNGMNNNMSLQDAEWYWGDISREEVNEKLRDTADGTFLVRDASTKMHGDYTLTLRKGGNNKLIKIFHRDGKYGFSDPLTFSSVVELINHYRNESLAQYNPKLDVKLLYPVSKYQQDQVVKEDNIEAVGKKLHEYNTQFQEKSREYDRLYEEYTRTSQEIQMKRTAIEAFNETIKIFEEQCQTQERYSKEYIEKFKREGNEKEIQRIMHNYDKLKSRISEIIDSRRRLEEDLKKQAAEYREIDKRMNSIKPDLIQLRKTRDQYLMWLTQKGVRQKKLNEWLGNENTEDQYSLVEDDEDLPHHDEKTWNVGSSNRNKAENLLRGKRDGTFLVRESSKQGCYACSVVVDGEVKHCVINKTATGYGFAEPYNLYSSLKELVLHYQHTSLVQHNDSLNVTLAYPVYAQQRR
Chain of CDK1 (cyclin B) (P06493 whole entry): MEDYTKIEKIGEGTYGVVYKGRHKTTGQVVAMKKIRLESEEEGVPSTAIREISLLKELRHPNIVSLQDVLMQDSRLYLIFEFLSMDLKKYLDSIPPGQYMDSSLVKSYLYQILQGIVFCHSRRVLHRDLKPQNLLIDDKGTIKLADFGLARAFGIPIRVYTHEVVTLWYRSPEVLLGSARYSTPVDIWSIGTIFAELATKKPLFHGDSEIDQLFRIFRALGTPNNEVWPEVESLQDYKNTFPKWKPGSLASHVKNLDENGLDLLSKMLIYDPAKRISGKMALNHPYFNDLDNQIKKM
Chain of CDK1 (cyclin B) (P14635 whole entry partner): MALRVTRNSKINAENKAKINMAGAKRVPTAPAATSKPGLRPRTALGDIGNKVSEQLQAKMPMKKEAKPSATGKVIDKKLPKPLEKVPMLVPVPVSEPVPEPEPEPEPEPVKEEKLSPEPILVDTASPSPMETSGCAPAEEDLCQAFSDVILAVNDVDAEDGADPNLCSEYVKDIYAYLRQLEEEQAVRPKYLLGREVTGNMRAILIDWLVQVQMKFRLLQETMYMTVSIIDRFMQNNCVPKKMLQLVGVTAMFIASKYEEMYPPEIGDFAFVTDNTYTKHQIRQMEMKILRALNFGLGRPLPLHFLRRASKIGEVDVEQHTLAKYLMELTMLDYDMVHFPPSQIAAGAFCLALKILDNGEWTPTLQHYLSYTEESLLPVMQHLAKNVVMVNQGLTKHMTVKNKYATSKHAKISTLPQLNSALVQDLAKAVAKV

On to `Fc1cnc(Nc2ccc(N3CCCNCC3)cn2)nc1-c1cc(F)c2c(c1)N(C1CCCC1)CCO2` [Compound 478, N-(5-(1,4-diazepan-1-yl)pyridin-2-yl)-4-(4-cyclopentyl-8-fluoro-3,4-dihydro-2H-benzo[b][1,4]oxazin-6-yl)-5-fluoropyrimidin-2-amine], for which the half-inhibitory concentration (IC50) against CDK2 (cyclin A) was 97 nM; against CDK1 (cyclin B) it was 453 nM; against CDK4 it was 9 nM; against CDK6, 27 nM; at PI3Kδ kinase, 33700 nM; against FMS kinase, 2220 nM. Moreover, the values for the IC50 in the assay on MCF-7 (setting [1]) and in the assay on DU4475 (setting [2]) were 665 nM and 1680 nM, respectively.

With `CC(C)N1CCOc2c(F)cc(-c3nc(Nc4ccc(N5CCCNCC5)cn4)ncc3F)cc21` [Compound 477, N-(5-(1,4-diazepan-1-yl)pyridin-2-yl)-5-fluoro-4-(8-fluoro-4-isopropyl-3,4-dihydro-2H-benzo[b][1,4]oxazin-6-yl)pyrimidin-2-amine], the half-inhibitory concentration (IC50) on CDK2 (cyclin A) was 25 nM; on CDK1 (cyclin B), 158 nM; on PI3Kδ kinase, > 50000 nM; against FMS kinase it was 752 nM; in the assay with MCF-7 (setting [1]), 280 nM; in the assay on DU4475 (setting [2]) it was 1100 nM.

As for `CC(C)CN1CCOc2c(F)cc(-c3nc(Nc4ccc(C5CCN(C)CC5)cn4)ncc3F)cc21` [Compound 479, 5-fluoro-4-(8-fluoro-4-isobutyl-3,4-dihydro-2H-benzo[b][1,4]oxazin-6-yl)-N-(5-(1-methylpiperidin-4-yl)pyridin-2-yl)pyrimidin-2-amine], the IC50 amounted to 44 nM at CDK2 (cyclin A); 213 nM on CDK1 (cyclin B); 2.5 nM at CDK4; 5 nM against CDK6; 2600 nM against FMS kinase; 240 nM with MCF-7 (setting [1]).

Take `CC(C)CN1CCOc2c(F)cc(-c3nc(Nc4ccc5c(n4)CCNC5)ncc3F)cc21` [Compound 483, N-(5-fluoro-4-(8-fluoro-4-isobutyl-3,4-dihydro-2H-benzo[b][1,4]oxazin-6-yl)pyrimidin-2-yl)-5,6,7,8-tetrahydro-1,6-naphthyridin-2-amine]: the half-maximal inhibitory concentration (IC50) is 44 nM on CDK2 (cyclin A); 181 nM at CDK1 (cyclin B); 25 nM on CDK4; 20 nM at CDK6; > 50000 nM at PI3Kδ kinase; > 5000 nM against FMS kinase. In addition, the IC50 in the assay on MCF-7 (setting [1]) was 460 nM; in the assay with DU4475 (setting [2]) it was 665 nM.

As for `Fc1cnc(Nc2ccc3c(n2)CCNC3)nc1-c1cc(F)c2c(c1)N(C1CCCC1)CCO2` [Compound 509, N-(4-(4-cyclopentyl-8-fluoro-3,4-dihydro-2H-benzo[b][1,4]oxazin-6-yl)-5-fluoropyrimidin-2-yl)-5,6,7,8-tetrahydro-1,6-naphthyridin-2-amine], the IC50 worked out at 33 nM against CDK2 (cyclin A); 78 nM against CDK1 (cyclin B); 5 nM at CDK4; 10 nM on CDK6; 1090 nM in the assay on MCF-7 (setting [3]); 1480 nM with DU4475 (setting [4]).

For `COCCNS(=O)(=O)c1ccc(Nc2ncc(F)c(-c3cc(F)c4c(c3)N(C(C)C)CCO4)n2)cc1` [Compound 523, 4-(5-fluoro-4-(8-fluoro-4-isopropyl-3,4-dihydro-2H-benzo[b][1,4]oxazin-6-yl)pyrimidin-2-ylamino)-N-(2-methoxyethyl)benzenesulfonamide], the 50% inhibitory concentration (IC50) came to 74 nM at CDK2 (cyclin A); 21 nM against CDK1 (cyclin B); 20 nM at CDK4; 51 nM against CDK6; 55 nM with MCF-7 (setting [3]); 75 nM in the assay on DU4475 (setting [4]).

In the case of `CC(C)N1CCOc2c(F)cc(-c3nc(Nc4ccc(N5CCC(CN)CC5)cn4)ncc3F)cc21` [Compound 518, N-(5-(4-(aminomethyl)piperidin-1-yl)pyridin-2-yl)-5-fluoro-4-(8-fluoro-4-isopropyl-3,4-dihydro-2H-benzo[b][1,4]oxazin-6-yl)pyrimidin-2-amine], the IC50 turned out to be 560 nM against CDK2 (cyclin A); 1190 nM on CDK1 (cyclin B); 4 nM at CDK4; 28 nM on CDK6; 1020 nM in the assay with MCF-7 (setting [3]); 1330 nM in the assay with DU4475 (setting [2]).

In the case of `CC(C)N1CCOc2c(F)cc(-c3nc(Nc4ccc5c(c4)CCN(C(=O)CN(C)C)C5)ncc3F)cc21` [Compound 456, 2-(dimethylamino)-1-(6-((5-fluoro-4-(8-fluoro-4-isopropyl-3,4-dihydro-2H-benzo[b][1,4]oxazin-6-yl)pyrimidin-2-yl)amino)-3,4-dihydroisoquinolin-2(1H)-yl)ethan-1-one], the half-maximal inhibitory concentration (IC50) at CDK2 (cyclin A) was < 1 nM; against CDK1 (cyclin B), < 1 nM; against CDK4 it was 4 nM; against CDK6, 3.5 nM; at PI3Kδ kinase, 19500 nM; on FMS kinase it was 4 nM. Moreover, the IC50 in the assay on MCF-7 (setting [3]) is < 4 nM.

Turning to `CC(C)N1CCOc2c(F)cc(-c3nc(Nc4ccc5c(n4)CCNC5)ncc3F)cc21` [Compound 481, N-(5-fluoro-4-(8-fluoro-4-isopropyl-3,4-dihydro-2H-benzo[b][1,4]oxazin-6-yl)pyrimidin-2-yl)-5,6,7,8-tetrahydro-1,6-naphthyridin-2-amine], the IC50 is 24 nM on CDK2 (cyclin A); 69 nM on CDK1 (cyclin B); > 20000 nM on PI3Kδ kinase; 426 nM at FMS kinase; 85 nM in the assay on MCF-7 (setting [3]); 345 nM in the assay with DU4475 (setting [4]).

Take `CC(C)N1CCOc2c(F)cc(-c3nc(Nc4cc(C5CCN(C)CC5)n[nH]4)ncc3F)cc21` [Compound 499, 5-fluoro-4-(8-fluoro-4-isopropyl-3,4-dihydro-2H-benzo[b][1,4]oxazin-6-yl)-N-(3-(1-methylpiperidin-4-yl)-1H-pyrazol-5-yl)pyrimidin-2-amine]: the IC50 on CDK2 (cyclin A) was determined as 19 nM; on CDK1 (cyclin B), 69 nM; in the assay on MCF-7 (setting [3]), 175 nM; with DU4475 (setting [2]), 345 nM.

For the compound `CC(C)N1CCOc2c(F)cc(-c3nc(Nc4ccc5c(c4)C(=O)NCC5)ncc3F)cc21` [Compound 502, 7-((5-fluoro-4-(8-fluoro-4-isopropyl-3,4-dihydro-2H-benzo[b][1,4]oxazin-6-yl)pyrimidin-2-yl)amino)-3,4-dihydroisoquinolin-1(2H)-one], the IC50 against CDK2 (cyclin A) was 74 nM; against CDK1 (cyclin B) it was 69 nM; at CDK4 it was 12 nM; on CDK6, 28 nM; in the assay with MCF-7 (setting [3]), 435 nM; in the assay on DU4475 (setting [4]), 405 nM.

With `CCN1CCN(Cc2ccc(Nc3ncc(F)c(-c4cc(F)c5c(c4)N(C(C)C)CCO5)n3)nc2)CC1` [Compound 4, N-(5-((4-ethylpiperazin-1-yl)methyl)pyridin-2-yl)-5-fluoro-4-(8-fluoro-4-isopropyl-3,4-dihydro-2H-benzo[b][1,4]oxazin-6-yl)pyrimidin-2-amine], the IC50 is 12 nM against CDK2 (cyclin A); 130 nM on CDK1 (cyclin B); > 5000 nM on PI3Kδ kinase; 566 nM at FMS kinase; 110 nM with MCF-7 (setting [1]).

Take `CC(C)N1CCOc2c(F)cc(-c3nc(Nc4cc(C5CCN(C)CC5)no4)ncc3F)cc21` [Compound 495, N-(5-fluoro-4-(8-fluoro-4-isopropyl-3,4-dihydro-2H-benzo[b][1,4]oxazin-6-yl)pyrimidin-2-yl)-3-(1-methylpiperidin-4-yl)isoxazol-5-amine]: the concentration for half-maximal inhibition (IC50) against CDK2 (cyclin A) was determined as 2 nM; at CDK1 (cyclin B), 5 nM; with MCF-7 (setting [1]), 110 nM; in the assay with DU4475 (setting [2]) it was 310 nM.

`CC(C)N1CCOc2c(F)cc(-c3nc(Nc4ccc(S(=O)(=O)NCCN(C)C)cc4)ncc3F)cc21` [Compound 513, N-(2-(dimethylamino)ethyl)-4-((5-fluoro-4-(8-fluoro-4-isopropyl-3,4-dihydro-2H-benzo[b][1,4]oxazin-6-yl)pyrimidin-2-yl)amino)benzenesulfonamide]: the IC50 at CDK2 (cyclin A) is 3 nM; at CDK1 (cyclin B), < 1 nM; on CDK4 it was 2 nM; against CDK6, 8 nM; in the assay with MCF-7 (setting [3]), 17 nM; in the assay with DU4475 (setting [4]) it was 50 nM.

`CC(C)N1CCOc2c(F)cc(-c3nc(Nc4ccc(S(N)(=O)=O)cc4)ncc3F)cc21` [Compound 507, 4-((5-fluoro-4-(8-fluoro-4-isopropyl-3,4-dihydro-2H-benzo[b][1,4]oxazin-6-yl)pyrimidin-2-yl)amino)benzenesulfonamide]: the half-maximal inhibitory concentration (IC50) against CDK2 (cyclin A) was 3.2 nM; at CDK1 (cyclin B) it was 1.3 nM; against CDK4 it was 6 nM; against CDK6 it was 13 nM; in the assay on MCF-7 (setting [3]), < 5 nM; with DU4475 (setting [4]) it was 20 nM.

With `CC(C)N1CCOc2c(F)cc(-c3nc(Nc4ccc(C5CCN(C)C5)cn4)ncc3F)cc21` (stereo not drawn) [Compound 498, 5-fluoro-4-(8-fluoro-4-isopropyl-3,4-dihydro-2H-benzo[b][1,4]oxazin-6-yl)-N-(5-(1-methylpyrrolidin-3-yl)pyridin-2-yl)pyrimidin-2-amine], the half-maximal inhibitory concentration (IC50) against CDK2 (cyclin A) is 155 nM; on CDK1 (cyclin B), 223 nM; on CDK4, 1 nM; against CDK6, 3 nM; in the assay with MCF-7 (setting [3]) it was 170 nM; with DU4475 (setting [4]), 465 nM.

The values above are taken from US11174252B2, “Heterocyclic compounds as kinase inhibitors” (priority 2018, dated 2021).
